Columns and labels:
[1] = test system: Akt phosphorylation on Ser473; assay: Inhibition of activation of Akt kinase (phospho-Akt Ser473 assay in RBL-2H3 cells); type: cell-based, Rat; conditions: IgE and antigen 15 min, normalized to total Akt
Text: The mast cell degranulation assay using the RBL-2H3 cell line (see example 6) was also used to determine the status of the PI3K/Akt axis. Activation of PI3K leads to production of PIP3 on the cytosolic side of the lipid bilayer. Akt is recruited to the PIP3 domain and subsequently activated by phosphorylation on residues Ser473 and Thr308. (Franke et al., Cell 81:727-736, (1995)). Once recruited to the membrane, it is phosphorylated and activated by other kinases (Hemmings, Science 275:628-630 (1997); Hemmings, Science 276:534 (1997); Downward. Science 279:673-674 (1998); Alessi et al., EMBO J. 15:6541-6551 (1996)). Western blotting of the phosphorylated Ser473 residue on Akt (phospho-Akt Ser473) is widely used to assess the level of activation of the PI3K/Akt axis.
All buffers and solutions used for the phosphor-Akt Ser473 assay were from Meso Scale Discovery. Tris Lysis Buffer consisted of 150 mM NaCl, 20 mM Tris, pH 7.5, 1 mM EDTA, 1 mM EGTA and 1% Triton-X-100. Complete Tris Lysis Buffer was prepared prior to use by addition of protease inhibitor, phosphatase inhibitors and PMSF. The 10× Tris Wash Buffer consisted of 500 mM Tris, pH 7.5, 1.5 M NaCl and 0.2% Tween-20. Blocker A was made up of bovine serum albumin in Tris Wash Buffer, Read Buffer T was used according to manufacturer's instructions. The Whole Cell Lysate Kits used were phospho-Akt Ser473 (K111000, Lot K0011749) and total ERK1/2 (K11107D, Lot K0011698) as a loading control.
Protein assay: protein concentration was determined using the BCA (bicinchoninic acid) Protein Assay kit according to the manufacturer's instructions. Briefly, duplicate 10 μl samples of bovine serum albumin (BSA) standards, blank and lysates were incubated in a 96-well plate with 0.2 ml working reagent for 30 min at 37° C. Plates were cooled to room temperature for 5 min and absorbance at 562 nm was measured in a multi-mode plate reader. Protein concentrations were calculated using FlexStation 3 software (SoftMax Pro version 5.3), Protein concentration of lysates was determined from a standard curve (BSA) using a linear curve fit.
Phosphoprotein assay: protein phosphorylation was determined using the MULTI-SPOT® Assay System (Meso Scale Discovery), providing simultaneous detection of phosphorylated and total proteins. Briefly, capture antibodies against phosphorylated and total protein are patterned on distinct spots in the same well of 96-well plates. Sandwich immunoassay and electrochemiluminescence detection technology are combined to measure intensity of the emitted light from phosphorylated and total protein spots. Analysis of phosphor-Akt Ser473 was performed according to the manufacturer's instructions. The optimal amount of protein was determined at 5 μg lysate per well for ERK1/2 and 10 μg/well for phospho-Akt Ser473, Plates were blocked with 25 μl/well Blocker A for 1 h at room temperature with gentle agitation. During this time, the lysates were thawed and diluted to the desired protein concentration in complete Tris Lysis Buffer. Plates were washed four times in Tris Wash Buffer and 25 μl lysate per well added. Plates were incubated for 1-3 h at room temperature with agitation according to the manufacturer's recommendations. Plates were washed four times with Tris Wash Buffer, followed by addition of 25 μl/well of the respective detection antibody and incubation for 1 h at room temperature, with agitation. After a final four washes with Tris Wash Buffer 150 μl/well, Read Buffer T was added and plates read on a SECTOR Imager 6000 plate reader.
The mean background signal from each plate was subtracted from averaged raw data. The amount of total protein phosphorylated was expressed as % phosphoprotein according to the manufacturer's (Meso Scale Discovery) instructions.
Levels of phospho-Akt Ser473 were determined in IgE sensitized and antigen stimulated cells after treatment without (positive control) or with 1, 5 and 25 μM test compound and normalized to levels of total Akt.

[2] = test system: local lymph node reaction; assay: Local lymph node weight and cell count after TDI challenge; type: in vivo, mice; conditions: topical 1a 2% or 6%, diflorasone 0.1% and 0.5%
Procedure: Directly after sacrifice, the ear draining lymph node (Ln. auricularis) was prepared and excised. Organ weight was determined by means of an analytical balance (Kern, Balingen, Germany). Single cell suspensions were prepared by means of a glass potter (VWR, Darmstadt, Germany) and cells were counted with a hemocytometer (Neubauer, VWR, Germany).
One of the most undesirable side-effects of corticosteroid administration is immunosuppression, which leads to the inability to effectively address parasitic infection, wound healing and tumor growth. In the current study, the local lymph node reaction after TDI challenge (lymph node weight and cell number) was determined to assess the response of immune organs.

[3] = Pharmacokinetic study after a single oral administration to mice; type: in vivo
Procedure: The aim of the study was to evaluate pharmacokinetic (PK) properties of five different batches including anhydrates and monohydrates of the crystal form A of compound 1a (cf. Table 1 in Example 5) after a single oral administration to mice. Three of the forms were anhydrous and two were monohydrates.
Compound 1a was administered as a suspension of 0.5% methyl cellulose (Sigma-Aldrich) in water at a dose of 100 mg/kg (10 ml/kg) by oral gavage to non-fasted female Balb/c mice (n=3).
Blood was collected by decapitation at 0.5, 1, 2, 4, 8, 12, 24, and 48 h after administration. Blood plasma was isolated by centrifugation at 4° C. (20,000×g for 10 min), transferred to microtubes containing lithium-heparin and frozen in aliquots at −70° C. until assayed by mass-spectrometry. Mean plasma concentration-time profiles (semi-logarithmic) of the five polymorphic crystal forms of compound 1a are shown in FIG. 6.
For PK evaluation, summary statistics and plotting of concentration/time curves, all values below the lower limit of quantification (LLOQ) were set to zero.

CCCCCCCCCCCCCCCCN(C)CC(O)CS(=O)(=O)O (stereo not drawn) [Compound 1a, 2-hydroxy-3-(N-methylhexadecylammonio)propane-sulfonate]
Level of phospho-Akt Ser473 ([1]; 1 μM): 80.8 ± 17.9 % positive control
Level of phospho-Akt Ser473 ([1]; 5 μM): 62.4 ± 16.1 % positive control
Level of phospho-Akt Ser473 ([1]; 25 μM): 9.7 ± 4.9 % positive control
local lymph node reaction (lymph node weight and cell number) [2]: did not have any impact
tmax ([3]; female, Balb/c, mouse, plasma, po, 100 mg/kg, female Balb/c mice, single oral 100 mg/kg in 0.5% methylcellulose, plasma, read-out: tmax): 1 to 2 h
overt toxicity ([3]; single oral 100 mg/kg, regardless of the polymorphic crystal form): No overt toxicity

CCCCCCCCCCCCN(C)CC(O)CS(=O)(=O)O (stereo not drawn) [Compound 1c, 2-hydroxy-3-(N-methyldodecylammonio)propanesulfonate]
Level of phospho-Akt Ser473 ([1]; 1 μM): 119.7 ± 35.7 % positive control
Level of phospho-Akt Ser473 ([1]; 5 μM): 67.9 ± 17.3 % positive control
Level of phospho-Akt Ser473 ([1]; 25 μM): 17.4 ± 6.4 % positive control
